≈ marks a conversion by molar mass, not a printed value. Where two headings read alike, the source gives them in different places.
What was measured:
[1] = biological target: P. falciparum lactate dehydrogenase (Plasmodium falciparum, UniProt Q27743); conditions: cited from earlier work
[2] = test system: RF laboratory strain of HIV-1; test: antiviral evaluation in CEM-SS cell line against HIV-1 RF; format: cell-based; conditions: CEM-SS cells, HIV-1 RF strain
Experimental: The purified fraction 90I may yield a fifty percent effective concentration (EC50) of 0.020 ug/ml. At the same time, there was no discernible drug induced toxicity in this study (50% inhibitory concentration ([…]) was greater than the high-test concentration of 100 ug/ml).

[3] = test system: gamma interferon; test: in vitro gamma interferon production; format: cell-based
Description: Moreover, the increase in gamma interferon may have a far greater impact on reversing the course of HIV-1 infection. […] Therefore, further evaluation of 90I in malaria cell-lines may provide the opportunity to find new clinical uses for an established HIV antiprotease patented drug. Also, the purpose of this approach is to lower the costs and shorten the timeframe of product development.

[4] = biological target: P. falciparum aspartic protease plasmepsin II (Plasmodium falciparum, UniProt P46925); conditions: read-out: 1050, plasmepsin II; cited from earlier work
P. falciparum aspartic protease plasmepsin II, sequence (P46925 125-453): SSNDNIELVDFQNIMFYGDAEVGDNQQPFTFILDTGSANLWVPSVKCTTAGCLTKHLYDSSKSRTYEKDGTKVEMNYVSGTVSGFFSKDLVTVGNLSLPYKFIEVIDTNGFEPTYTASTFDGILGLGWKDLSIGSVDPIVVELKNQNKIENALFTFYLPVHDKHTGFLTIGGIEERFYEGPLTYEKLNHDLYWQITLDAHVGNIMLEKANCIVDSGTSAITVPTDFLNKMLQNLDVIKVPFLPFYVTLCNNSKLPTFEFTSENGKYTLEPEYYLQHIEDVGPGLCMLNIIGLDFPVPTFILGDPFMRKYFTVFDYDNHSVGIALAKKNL

[5] = test system: P. falciparum culture; conditions: cited from earlier work

P. falciparum lactate dehydrogenase, sequence (Q27743 whole entry): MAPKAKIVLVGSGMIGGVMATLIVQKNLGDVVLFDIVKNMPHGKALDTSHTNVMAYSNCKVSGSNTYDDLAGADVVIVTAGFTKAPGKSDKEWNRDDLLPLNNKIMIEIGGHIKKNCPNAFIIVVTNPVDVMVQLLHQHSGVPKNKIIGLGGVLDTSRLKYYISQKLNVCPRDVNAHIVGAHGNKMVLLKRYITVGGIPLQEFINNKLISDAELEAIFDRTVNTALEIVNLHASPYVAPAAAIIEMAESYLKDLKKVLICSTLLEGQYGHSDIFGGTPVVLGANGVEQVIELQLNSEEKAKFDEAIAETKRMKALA

## CCN(CC)CCCC(C)Nc1ccnc2cc(Cl)ccc12 (centres unmarked) [chloroquine]
[1]
  inhibition of lactate dehydrogenase: weak inhibitor

## O=C(OCCOCCOC(=O)c1ccccc1)c1ccccc1 [90I, diethylene glycol dibenzoate]
[2]
  therapeutic index (T1=IC50/EC50): greater than 5000
[2]; Human immunodeficiency virus 1, read-out: fifty percent effective concentration (EC50)
  EC50: 0.02 µg/mL (≈ 0.0636 µM)
[3]
  production of gamma interferon: increased production of gamma interferon

## Cc1cccc(C)c1OCC(=O)N[C@@H](Cc1ccccc1)[C@@H](O)C[C@H](Cc1ccccc1)NC(=O)[C@H](C(C)C)N1CCCNC1=O [lopinavir]
[4]
  IC50: 2700 nM

## CC(=O)N[C@@H](CC(C)C)C(=O)N[C@@H](CC(C)C)C(=O)N[C@H](C=O)CCCNC(=N)N [Leupeptin, N-acetyl-L-leucyl-L-leucy-L-argininal]
[5]; 10 μg/ml
  effects on P. falciparum culture: All three of these effects were also seen

## CC(C)C[C@H](NC(=O)[C@H]1O[C@@H]1C(=O)O)C(=O)NCCCCN=C(N)N (relative stereo) [E64, trans-Epoxysuccinyl-L-leucylamido(4-guanidino)butane]
[5]
  effects on P. falciparum culture: blocked parasite release

## CCCC[C@@H](C=O)NC(=O)[C@H](CC(C)C)NC(=O)OCc1ccccc1 [calpeptin]
[5]; 1 μM
  effects on P. falciparum culture: All three of these effects were also seen

From patent US20210386814A1, “METHODS AND COMPOUND FOR THE TREATMENT OF MALARIA” (priority 2020, published 2021)
